Measured values from PubChem BioAssay (NCI).
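Step 1: Grow cells in 96-well plates. Step 2: Expose to compound for 48 hours at 5 concentrations. Step 3: Interpolate endpoints linearly; if unreached, use highest concentration. Abbreviation: GI50, concentration required for 50% inhibition of growth. At the TGI there is no net growth.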

Tests used:
Assay in all cases: NCI tumour cell line growth inhibition, 48 h
[1] = test system: 786-0 renal
[2] = test system: A498 renal
[3] = test system: A549 NSCLC
[4] = test system: ACHN renal
[5] = test system: BT-549 breast
[6] = test system: CAKI-1 renal
[7] = test system: CCRF-CEM leukemia
[8] = test system: COLO 205 colon
[9] = test system: DU-145 prostate
[10] = test system: EKVX NSCLC
[11] = test system: HCC-2998 colon
[12] = test system: HCT-116 colon
[13] = test system: HCT-15 colon
[14] = test system: HL-60(TB) leukemia
[15] = test system: HOP-62 NSCLC
[16] = test system: HOP-92 NSCLC
[17] = test system: HS 578T breast
[18] = test system: HT29 colon
[19] = test system: IGROV1 ovarian
[20] = test system: K-562 leukemia
[21] = test system: KM12 colon
[22] = test system: LOX IMVI melanoma
[23] = test system: M14 melanoma
[24] = test system: MALME-3M melanoma
[25] = test system: MCF7 breast
[26] = test system: MDA-MB-231 breast
[27] = test system: MDA-MB-435
[28] = test system: MOLT-4 leukemia
[29] = test system: NCI-H226 lung
[30] = test system: NCI-H23 lung
[31] = test system: NCI-H460 lung
[32] = test system: NCI-H522 lung
[33] = test system: NCI/ADR-RES ovarian
[34] = test system: OVCAR-3 ovarian
[35] = test system: OVCAR-4 ovarian
[36] = test system: OVCAR-5 ovarian
[37] = test system: OVCAR-8 ovarian
[38] = test system: PC-3 prostate
[39] = test system: RPMI-8226 leukemia
[40] = test system: RXF 393 renal
[41] = test system: SF-268 CNS
[42] = test system: SF-295 CNS
[43] = test system: SF-539 CNS
[44] = test system: SK-MEL-2 melanoma
[45] = test system: SK-MEL-28 melanoma
[46] = test system: SK-MEL-5 melanoma
[47] = test system: SK-OV-3 ovarian
[48] = test system: SN12C renal
[49] = test system: SNB-19 CNS
[50] = test system: SNB-75 CNS
[51] = test system: SR leukemia
[52] = test system: SW-620 colon
[53] = test system: T-47D breast
[54] = test system: TK-10 renal
[55] = test system: U251 CNS
[56] = test system: UACC-257 melanoma
[57] = test system: UACC-62 melanoma
[58] = test system: UO-31 renal

`N#Cc1c(-c2ccc(Cl)cc2)cc(-c2cc(O)ccc2O)nc1N` gave a GI50 [1] of 2060 nM, a TGI [1] of 6.49 µM and a GI50 [2] of 1410 nM. For the same molecule, the TGI [2] was 6.14 µM, the GI50 [3] was 2330 nM and the TGI [3] was 13.8 µM. For the same molecule, the GI50 [4] was 1890 nM, the TGI [4] was 12.2 µM and the GI50 [5] was 3.41 µM. For the same molecule, the TGI [5] was 31.2 µM, the GI50 [6] was 2980 nM and the TGI [6] was 19.1 µM. For the same molecule, the GI50 [7] was 1230 nM, the TGI [7] was greater than 100 µM and the GI50 [8] was 22.4 µM. It also gave a TGI [8] greater than 100 µM, a GI50 [9] of 1250 nM and a TGI [9] of 10.5 µM. The GI50 [10] was 2770 nM, the TGI [10] was greater than 62.9 µM and the GI50 [11] was 1170 nM. For the same molecule, the TGI [11] was 3.46 µM, the GI50 [12] was 553 nM and the TGI [12] was greater than 34 µM. The GI50 [13] was 4.74 µM, the TGI [13] was greater than 52.8 µM and the GI50 [14] was 7.64 µM. The TGI [14] was greater than 87.9 µM, the GI50 [15] was 908 nM and the TGI [15] was 3.5 µM. It also gave a GI50 [16] of 2390 nM, a TGI [16] of 10.8 µM and a GI50 [17] of 1730 nM. The TGI [17] was greater than 100 µM, the GI50 [18] was 11.7 µM and the TGI [18] was greater than 53.3 µM. It also gave a GI50 [19] of 1240 nM, a TGI [19] of 4.77 µM and a GI50 [20] of 402 nM. The TGI [20] was greater than 100 µM, the GI50 [21] was 2000 nM and the TGI [21] was 14.9 µM. The GI50 [22] was 558 nM, the TGI [22] was 1890 nM and the GI50 [23] was 1230 nM. The TGI [23] was 5.63 µM, the GI50 [24] was 1540 nM and the TGI [24] was 4.27 µM. The GI50 [25] was 566 nM, the TGI [25] was greater than 32.8 µM and the GI50 [26] was 1250 nM. For the same molecule, the TGI [26] was 5.09 µM, the GI50 [27] was 686 nM and the TGI [27] was 2740 nM. For the same molecule, the GI50 [28] was 666 nM, the TGI [28] was 5.02 µM and the GI50 [29] was 2540 nM. It also gave a TGI [29] of 9.87 µM, a GI50 [30] of 1220 nM and a TGI [30] of 5.28 µM. The GI50 [31] was 935 nM, the TGI [31] was 4.87 µM and the GI50 [32] was 606 nM. The TGI [32] was 2720 nM, the GI50 [33] was 8.8 µM and the TGI [33] was greater than 100 µM. It also gave a GI50 [34] of 472 nM, a TGI [34] of 1510 nM and a GI50 [35] of 576 nM. For the same molecule, the TGI [35] was 2200 nM, the GI50 [36] was 5.07 µM and the TGI [36] was 25.7 µM. For the same molecule, the GI50 [37] was 1370 nM, the TGI [37] was 4.93 µM and the GI50 [38] was 1480 nM. The TGI [38] was greater than 33.9 µM, the GI50 [39] was 3.2 µM and the TGI [39] was greater than 100 µM. For the same molecule, the GI50 [40] was 835 nM, the TGI [40] was 2720 nM and the GI50 [41] was 825 nM. For the same molecule, the TGI [41] was 7.15 µM, the GI50 [42] was 2940 nM and the TGI [42] was 9.77 µM. For the same molecule, the GI50 [43] was 981 nM, the TGI [43] was 3.29 µM and the GI50 [44] was 2600 nM. For the same molecule, the TGI [44] was 9.16 µM, the GI50 [45] was 1760 nM and the TGI [45] was 4.23 µM. The GI50 [46] was 853 nM, the TGI [46] was 2400 nM and the GI50 [47] was 2420 nM. For the same molecule, the TGI [47] was 6.34 µM, the GI50 [48] was 1170 nM and the TGI [48] was 5.63 µM. The GI50 [49] was 1290 nM, the TGI [49] was greater than 45.3 µM and the GI50 [50] was 914 nM. The TGI [50] was 4.04 µM, the GI50 [51] was 605 nM and the TGI [51] was greater than 100 µM. It also gave a GI50 [52] of 773 nM, a TGI [52] of 4.68 µM and a GI50 [53] of 854 nM. The TGI [53] was 5.64 µM, the GI50 [54] was 4.08 µM and the TGI [54] was 32.8 µM. It also gave a GI50 [55] of 669 nM, a TGI [55] of 2410 nM and a GI50 [56] of 1830 nM. The TGI [56] was 7.44 µM, the GI50 [57] was 1450 nM and the TGI [57] was 3.99 µM. The GI50 [58] was 5.12 µM and the TGI [58] was 23.6 µM.
